{"source": "patent US9458195B2", "about": "“Melanocortin receptor ligands” (Ipsen Pharma S.A.S., priority 2005, dated 2016)", "key": {"[1]": {"biological_target": "T1, hMC1-R (Homo sapiens, UniProt Q01726)", "T1 construct": "expressed in transfected cells; host or cells: CHO-K1 (membranes)", "T1 sequence (Q01726 whole entry)": "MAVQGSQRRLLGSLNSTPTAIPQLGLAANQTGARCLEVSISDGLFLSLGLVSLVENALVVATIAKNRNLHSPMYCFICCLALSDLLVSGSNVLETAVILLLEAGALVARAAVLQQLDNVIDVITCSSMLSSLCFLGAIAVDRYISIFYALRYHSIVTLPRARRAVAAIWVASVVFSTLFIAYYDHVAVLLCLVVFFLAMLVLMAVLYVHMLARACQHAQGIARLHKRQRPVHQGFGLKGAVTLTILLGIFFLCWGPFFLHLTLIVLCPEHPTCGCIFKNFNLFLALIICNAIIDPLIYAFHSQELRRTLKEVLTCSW", "assay": "Radioligand binding assay, [125I]-NDP-α-MSH competition, hMC1-R", "conditions": "CHO-K1 cell membranes", "experimental": "(§1) Radioligand Binding Assays\n(§2) Cellular membranes used for the in vitro receptor binding assays were obtained from transgenic CHO-K1 cells stably expressing hMC-R receptor subtypes 1, 3, 4 or 5. […] The pellets were resuspended in the same buffer and centrifuged at 50,000 g for 10 minutes at approximately 4° C. The washed pellets containing the cellular membranes were stored at approximately −80° C.\n(§3) Filters were washed three times with 50 mM Tris-HCl at pH 7.4 at a temperature of approximately 0-4° C. and then assayed for radioactivity using a Packard Topcount® scintillation counter. Binding data were analyzed by computer-assisted non-linear regression analysis (XL fit; IDBS)."}, "[2]": {"biological_target": "T2, hMC3-R (Homo sapiens, UniProt P41968)", "T2 construct": "expressed in transfected cells; host or cells: CHO-K1 (membranes)", "T2 sequence (P41968 whole entry)": "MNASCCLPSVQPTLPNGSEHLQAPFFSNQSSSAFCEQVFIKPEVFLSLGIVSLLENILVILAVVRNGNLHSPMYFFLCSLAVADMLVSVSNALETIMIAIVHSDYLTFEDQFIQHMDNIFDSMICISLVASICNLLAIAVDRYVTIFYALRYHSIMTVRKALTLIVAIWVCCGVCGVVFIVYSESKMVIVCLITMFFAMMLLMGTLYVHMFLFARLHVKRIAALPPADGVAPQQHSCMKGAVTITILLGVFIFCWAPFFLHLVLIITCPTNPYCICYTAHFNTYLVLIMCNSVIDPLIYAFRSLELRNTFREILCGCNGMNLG", "assay": "cyclic AMP bioassay (ECL), CHO-K1 cells expressing hMC3-R", "assay_type": "cell-based", "conditions": "Table 3B, cAMP", "procedure": "(§4) Intracellular cyclic AMP (cAMP) levels were determined by an electrochemiluminescence (ECL) assay (Meso Scale Discovery®, Gaithersburg, Md.; referred to hereinafter as MSD). […] Transgenic CHO-K1 cells stably expressing hMC receptor subtypes 1, 3, 4 or 5 were dispensed at a density of approximately 7,000 cells/well in 384-well Multi-Array® plates (MSD) containing integrated carbon electrodes and coated with anti-cAMP antibody. Increasing concentrations of the test compounds were added and the cells were incubated for approximately 40 minutes at approximately 37° C. […] At the end of the second incubation period read buffer (Tris-buffered solution containing an ECL co-reactant and Triton X-100 at ph 7.8) was added and the cAMP levels in the cell lysates were immediately determined by ECL detection with a Sector Imager 6000 Reader® (MSD). Data were analyzed using a computer-assisted non-linear regression analysis (XL fit; IDBS) and reported as either an EC50 value or a Kb value."}, "[3]": {"biological_target": "T3, hMC4-R (Homo sapiens, UniProt P32245)", "T3 construct": "expressed in transfected cells; host or cells: CHO-K1 (membranes)", "T3 sequence (P32245 whole entry)": "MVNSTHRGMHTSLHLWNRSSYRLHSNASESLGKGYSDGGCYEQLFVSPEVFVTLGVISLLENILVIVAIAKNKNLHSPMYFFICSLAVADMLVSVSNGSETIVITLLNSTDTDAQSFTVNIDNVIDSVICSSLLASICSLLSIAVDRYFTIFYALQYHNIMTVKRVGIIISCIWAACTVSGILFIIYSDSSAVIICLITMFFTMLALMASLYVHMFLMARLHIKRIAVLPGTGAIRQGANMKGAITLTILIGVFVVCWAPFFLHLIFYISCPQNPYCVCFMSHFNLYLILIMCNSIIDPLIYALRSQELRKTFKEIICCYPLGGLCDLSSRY", "assay": "cyclic AMP bioassay (ECL), CHO-K1 cells expressing hMC4-R", "assay_type": "cell-based", "conditions": "Table 3B, cAMP", "procedure": "as §4"}, "[4]": {"biological_target": "T4, hMC5-R (Homo sapiens, UniProt P33032)", "T4 construct": "expressed in transfected cells; host or cells: CHO-K1 (membranes)", "T4 sequence (P33032 whole entry)": "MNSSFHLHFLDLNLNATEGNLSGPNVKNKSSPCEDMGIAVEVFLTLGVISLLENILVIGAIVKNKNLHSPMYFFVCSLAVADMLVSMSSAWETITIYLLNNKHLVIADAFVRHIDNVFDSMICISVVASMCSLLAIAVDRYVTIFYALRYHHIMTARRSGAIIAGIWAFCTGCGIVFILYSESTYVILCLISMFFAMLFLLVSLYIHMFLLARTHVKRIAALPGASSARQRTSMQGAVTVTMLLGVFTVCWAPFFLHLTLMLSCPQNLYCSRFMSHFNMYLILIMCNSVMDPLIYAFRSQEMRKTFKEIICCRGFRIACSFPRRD", "assay": "cyclic AMP bioassay (ECL), CHO-K1 cells expressing hMC5-R", "assay_type": "cell-based", "conditions": "Table 3B, cAMP", "procedure": "as §4"}, "[5]": {"biological_target": "T1, hMC1-R", "assay": "cyclic AMP bioassay (ECL), CHO-K1 cells expressing hMC1-R", "assay_type": "cell-based", "conditions": "Table 3B, cAMP", "procedure": "as §4"}, "[6]": {"biological_target": "T2, hMC3-R", "assay": "Radioligand binding assay, [125I]-NDP-α-MSH competition, hMC3-R", "conditions": "CHO-K1 cell membranes", "experimental": "as §1, §2, §3"}, "[7]": {"biological_target": "T3, hMC4-R", "assay": "Radioligand binding assay, [125I]-NDP-α-MSH competition, hMC4-R", "conditions": "CHO-K1 cell membranes", "experimental": "as §1, §2, §3"}, "[8]": {"biological_target": "T4, hMC5-R", "assay": "Radioligand binding assay, [125I]-NDP-α-MSH competition, hMC5-R", "conditions": "CHO-K1 cell membranes", "experimental": "as §1, §2, §3"}}, "note": "Bridges are numbered along the chain shown (N, C = ends). [ ]: non-standard residue; d: D form. Pen = CC(C)(S)[C@H](N)C(=O)O; Nle = CCCC[C@H](N)C(=O)O; GABA = NCCCC(=O)O", "data": [{"substance": "Ac-[Nle]CH[dF]RW[GABA][Pen]-NH2 (disulfide 2-8)", "values": [{"measurement": "Ki", "setting": "[1]", "value": 0.12, "unit": "nM"}, {"measurement": "EC50", "setting": "[2]", "value": 0.24, "unit": "nM"}, {"measurement": "EC50", "setting": "[3]", "value": 0.028, "unit": "nM"}, {"measurement": "EC50", "setting": "[4]", "value": 3.9, "unit": "nM"}, {"measurement": "EC50", "setting": "[5]", "value": 0.28, "unit": "nM"}, {"measurement": "Ki", "setting": "[6]", "value": 10, "unit": "nM"}, {"measurement": "Ki", "setting": "[7]", "value": 0.43, "unit": "nM"}, {"measurement": "Ki", "setting": "[8]", "value": 0.42, "unit": "nM"}]}]}
